Like-named read-outs stand apart in the source and are kept apart here.
Legend:
Format in all cases: cell-based
SU-DHL-10 = assay: CellTiterGlo viability, DLBCL cell line; conditions: single agent, 2 days; for IC50: read-out: Abs IC50
Method: (§6) In addition, all media contained penicillin (100 IU/ml), streptomycin (100 μg/ml) and L-glutamine (2 mM). Unless otherwise mentioned, culture media and supplements were from Amimed/Bioconcept (Allschwil, Switzerland).
(§7) Cell lines were cultured at 37° C. in a humidified atmosphere containing 5% CO2 and expanded in T-75 flasks. In all cases cells were thawed from frozen stocks, expanded through ≥1 passage using appropriate dilutions, counted and assessed for viability using a CASY cell counter (Omni Life Science, Bremen, Germany) prior to plating 25 ul/well at the densities indicated in Table 1 into 384-well plates (Corning). All cell lines were determined to be free of mycoplasma contamination by PCR assay performed at Idexx Radii (Columbia, Mo., USA) and misidentification ruled out by assessment of a panel of 48 Small Nucleotide Polymorphisms (SNPs) at Asuragen (Austin, Tex., USA) or in-house.
(§8) Stock solutions of compounds were prepared at a concentration of 10 mM in DMSO (Sigma) and stored at −20° C. Where necessary to afford a full dose-response curve, the stock solutions were pre-diluted in DMSO to 1′000-fold the desired start concentration (see Table 2). On the day after cell seeding, eight 2.5-fold serial dilutions of each compound were dispensed, either individually or in all possible permutations in a checkerboard fashion, directly into the cell assay plates using a non-contact 300D Digital Dispenser (ILCAN, Mannedorf, Switzerland) as outlined in FIG. 4. The final concentration of DMSO was 0.2% in all wells.
(§9) Effects of the single agents as well as their checkerboard combinations on cell viability were assessed after 2 days of incubation at 37° C./5% CO2 by quantification of cellular ATP levels using CellTiterGlo (Promega, Madison, Wis., USA) at 25 μL reagent/well and n=2 replicate plates per condition. Luminescence was quantified on a M1000 multipurpose platereader (ILCAN, Mannedorf, Switzerland). The number/viability of cells at time of compound addition was likewise assessed and used to assess the degree of the population doubling time of a particular cell line.
(§10) Single agent IC50s were calculated using standard four-parametric curve fitting. […] IC50 are defined as the compound concentration at which the CTG signal is reduced to 50% of that measured for the vehicle (DMSO) control.

Pfeiffer = assay: CellTiterGlo viability, DLBCL cell line; conditions: single agent, 2 days; for IC50: read-out: Abs IC50
Method: as §6
(§11) Cell lines were cultured at 37° C. in a humidified atmosphere containing 5% CO2 and expanded in T-75 flasks. In all cases cells were thawed from frozen stocks, expanded through ≥1 passage using appropriate dilutions, counted and assessed for viability using a CASY cell counter (Omni Life Science, Bremen, Germany) prior to plating 25 ul/well at the densities indicated in Table 1 into 384-well plates (Corning).
as §8, §9, §10

JVM-2 = assay: CellTiterGlo viability, Mantle Cell Lymphoma cell line; conditions: single agent, 2 days
Method: (§1) In addition, all media contained penicillin (100 IU/ml), streptomycin (100 μg/ml) and L-glutamine (2 mM). […] All cell lines were determined to be free of mycoplasma contamination in-house. Stock solutions of compounds were prepared at a concentration of 5 mM in DMSO and stored at −20° C. In order to analyse the activity of the compounds as single agents or in combination, cells were seeded and treated with seven or eight 3.16-fold serial dilutions of each compound dispensed, either individually or in all possible permutations in a checkerboard fashion, directly into the cell assay plates. […] All the conditions were tested in triplicates. Luminescence was quantified on a multipurpose plate reader. […] All calculations were performed using Chalice™ Bioinformatics Software available in Horizon website. Single agent IC50s were calculated using standard four-parametric curve fitting.

Mino = assay: as above; conditions: single agent, 2 days
Method: as §1

Z-138 = assay: as above; conditions: single agent, 2 days
Method: as §1

Jeko = assay: as above; conditions: single agent, 2 days
Method: as §1

REC-1 = assay: as above; conditions: single agent, 2 days
Method: as §1

RL = assay: CellTiterGlo viability, DLBCL cell line; conditions: single agent, 2 days; for IC50: read-out: Abs IC50
Method: as §6, §11, §8, §9, §10

U-937 = assay: CellTiterGlo viability, DLBCL cell line; conditions: single agent, 2 days; for IC50: read-out: Abs IC50
Method: as §6, §7, §8, §9, §10

MOLT-4 = assay: CellTiterGlo viability, T-ALL cell line; conditions: single agent, 72 h
Method: (§2) In addition, all media contained penicillin (100 IU/ml), streptomycin (100 μg/ml) and L-glutamine (2 mM). Cell lines were cultured at 37° C. in a humidified atmosphere containing 5% CO2 and expanded in T-150 flasks. In all cases cells were thawed from frozen stocks, expanded through ≥1 passage using appropriate dilutions, counted and assessed for viability using a CASY cell counter prior to plating 150 ul/well at the densities indicated in Table 9 into 96-well plates. All cell lines were determined to be free of mycoplasma contamination in-house.
(§3) Stock solutions of compounds were prepared at a concentration of 5 mM in DMSO and stored at −20° C. In order to analyse the activity of the compounds as single agents, cells were seeded and treated with nine 2-fold serial dilutions of each compound dispensed individually directly into the cell assay plates. Effects of the compounds on cell viability were assessed after 3 days of incubation at 37° C./5% CO2 by quantification of cellular ATP levels using CellTiterGlo at 75 μL reagent/well. All the conditions were tested in triplicates. Luminescence was quantified on a multipurpose plate reader. Single agent IC50s were calculated using standard four-parametric curve fitting. IC50 is defined as the compound concentration at which the CTG signal is reduced to 50% of that measured for the vehicle (DMSO) control.
(§4) In order to analyse the activity of the compounds in combination, cells were seeded and treated with seven or eight 3.16-fold serial dilutions of each compound dispensed, either individually or in all possible permutations in a checkerboard fashion, directly into the cell assay plates as indicated in FIG. 1. Effects of the single agents as well as their checkerboard combinations on cell viability were assessed after 3 days of incubation at 37° C./5% CO2 by quantification of cellular ATP levels using CellTiterGlo at 75 μL reagent/well. For B-ALL cell lines, two independent experiments, each one performed in duplicates, were performed. For T-ALL cell lines, one experiment performed in triplicate was performed. Luminescence was quantified on a multipurpose plate reader.
(§5) Potential synergistic interactions between compound combinations were assessed using the Excess Inhibition 2D matrix according to the Loewe additivity model and are reported as Synergy Score (Lehar et al, Nat Biotechnol. 2009 July; 27(7): 659-666). All calculations were performed using Chalice TM Bioinformatics Software available in Horizon website. The doubling time indicated in Table 9 is the mean of the doubling time obtained in the different passages (in T-150 flasks) performed from the thawing of the cells to their seeding in the 96-well plates.

BE-13 = assay: CellTiterGlo viability, T-ALL cell line; conditions: single agent, 72 h
Method: as §2, §3, §4, §5

CML-T1 = assay: CellTiterGlo viability, T-ALL cell line; conditions: single agent, 72 h
Method: as §2, §3, §4, §5

TALL-104 = assay: CellTiterGlo viability, T-ALL cell line; conditions: single agent, 72 h
Method: as §2, §3, §4, §5

HPB-ALL = assay: CellTiterGlo viability, T-ALL cell line; conditions: single agent, 72 h
Method: as §2, §3, §4, §5

DND-41 = assay: CellTiterGlo viability, T-ALL cell line; conditions: 72 h
Method: as §2, §3, §4, §5

SU-DHL-8 = assay: CellTiterGlo viability, DLBCL cell line; conditions: single agent, 2 days; for IC50: read-out: Abs IC50
Method: as §6, §7, §8, §9, §10

CCRF-CEM = assay: CellTiterGlo viability, T-ALL cell line; conditions: single agent, 48 h
Method: as §2
as §3, with “Effects of the compounds on cell viability were assessed after 3 days of incubation at 37° C./5% CO2 by quantification of cellular ATP levels using CellTiterGlo at 75 μL reagent/well.” left out
In order to analyse the activity of the compounds in combination, cells were seeded and treated with seven or eight 3.16-fold serial dilutions of each compound dispensed, either individually or in all possible permutations in a checkerboard fashion, directly into the cell assay plates as indicated in FIG. 1. […] For B-ALL cell lines, two independent experiments, each one performed in duplicates, were performed. For T-ALL cell lines, one experiment performed in triplicate was performed. Luminescence was quantified on a multipurpose plate reader.
as §5

## Cl.O=C(c1cc(-c2cc3c(cc2C(=O)N2Cc4ccccc4C[C@H]2CN2CCOCC2)OCO3)n2c1CCCC2)N(c1ccccc1)c1ccc(O)cc1 [Compound 1, HCl, N-(4-hydroxyphenyl)-3-{6-[((3S)-3-(4-morpholinylmethyl)-3,4-dihydro-2(1H)-isoquinolinyl)carbonyl]-1,3-benzodioxol-5-yl}-N-phenyl-5,6,7,8-tetrahydro-1-indolizine carboxamide hydrochloride]
SU-DHL-10; Homo sapiens, SU-DHL10, 48 h
  IC50: ≥ 10000 nM
SU-DHL-10
  Max Inh: 43.9%
Pfeiffer; Homo sapiens, 48 h
  IC50: 4500 nM
Pfeiffer
  Max Inh: 92.0%
JVM-2; Homo sapiens, 48 h
  IC50: > 5000 nM
JVM-2
  Max Inh: 38.0%
Mino; Homo sapiens, 48 h
  IC50: 91 nM
Mino
  Max Inh: 91.0%
Z-138; Homo sapiens, 48 h
  IC50: > 5000 nM
Z-138
  Max Inh: 25.0%
Jeko; 48 h
  IC50: > 5000 nM
Jeko
  Max Inh: 35.0%
REC-1; Homo sapiens, Rec1, 48 h
  IC50: 703 nM
REC-1
  Max Inh: 78.0%
RL; Homo sapiens, 48 h
  IC50: 281 nM
RL
  Max Inh: 99.0%
U-937; Homo sapiens, 48 h
  IC50: 6830 nM
U-937
  Max Inh: 62.1%
MOLT-4; Homo sapiens
  IC50: 3290 nM
BE-13
  IC50: 6700 nM
CML-T1
  IC50: 15000 nM
TALL-104
  IC50: 15900 nM
HPB-ALL; Homo sapiens, HPBALL
  IC50: 4500 nM
DND-41; DND41, single agent
  IC50: 9000 nM
SU-DHL-8; Homo sapiens, 48 h
  IC50: ≥ 10000 nM
SU-DHL-8
  Max Inh: 28.7%
CCRF-CEM; Homo sapiens
  IC50: 7500 nM

## COc1ccccc1-c1nccc(COc2ccccc2C[C@@H](Oc2ncnc3sc(-c4ccc(F)cc4)c(-c4ccc(OCCN5CCN(C)CC5)c(Cl)c4C)c23)C(=O)O)n1 [Compound 3, (2R)-2-{[(5Sa)-5-{3-chloro-2-methyl-4-[2-(4-methylpiperazin-1-yl)ethoxy]phenyl}-6-(4-fluorophenyl)thieno[2,3-d]pyrimidin-4-yl]oxy}-3-(2-{[2-(2-methoxyphenyl)pyrimidin-4-yl]methoxy}phenyl)propanoic acid]
SU-DHL-10
  Max Inh: 98.3%
  IC50: 3.84 nM
Pfeiffer
  Max Inh: 82.7%
  IC50: 42.6 nM
JVM-2
  IC50: > 2000 nM
  Max Inh: 19.0%
Mino
  IC50: 8 nM
  Max Inh: 100.0%
Z-138
  IC50: 448 nM
  Max Inh: 96.0%
Jeko
  IC50: 23 nM
  Max Inh: 100.0%
REC-1
  IC50: 77 nM
  Max Inh: 99.0%
RL
  Max Inh: 95.4%
  IC50: 3030 nM
U-937
  Max Inh: 97.1%
  IC50: 8.32 nM
MOLT-4
  IC50: 26 nM
BE-13
  IC50: 15 nM
CML-T1
  IC50: 6000 nM
TALL-104
  IC50: 44 nM
HPB-ALL
  IC50: 660 nM
DND-41; single agent
  IC50: 7000 nM
SU-DHL-8
  Max Inh: 95.6%
  IC50: 305 nM
CCRF-CEM
  IC50: 47 nM
